Data from PubChem BioAssay (NCI).
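Briefly, cells in 96-well plates were exposed to five compound concentrations for 48 h, and endpoints were estimated by linear interpolation. At the GI50, growth is halved. TGI: total growth inhibition.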

How the values were obtained:
Assay in all cases: NCI tumour cell line growth inhibition, 48 h
K-562 leukemia = system: K-562 leukemia
LOX IMVI melanoma = system: LOX IMVI melanoma
NCI-H23 lung = system: NCI-H23 lung
OVCAR-3 ovarian = system: OVCAR-3 ovarian
OVCAR-4 ovarian = system: OVCAR-4 ovarian
SNB-75 CNS = system: SNB-75 CNS
TK-10 renal = system: TK-10 renal
U251 CNS = system: U251 CNS
T-47D breast = system: T-47D breast
HCC-2998 colon = system: HCC-2998 colon

SMILES | TGI (K-562 leukemia) | TGI (LOX IMVI melanoma) | TGI (NCI-H23 lung) | TGI (OVCAR-3 ovarian) | TGI (OVCAR-4 ovarian) | TGI (SNB-75 CNS) | TGI (TK-10 renal) | TGI (U251 CNS) | GI50 (K-562 leukemia) | GI50 (LOX IMVI melanoma) | GI50 (NCI-H23 lung) | GI50 (OVCAR-3 ovarian) | GI50 (OVCAR-4 ovarian) | GI50 (SNB-75 CNS) | GI50 (T-47D breast) | TGI (T-47D breast) | GI50 (TK-10 renal) | GI50 (U251 CNS) | GI50 (HCC-2998 colon) | TGI (HCC-2998 colon)
C[C@@H]1CC[C@@]2(C)OC(c3ccccc3)[C@H](CO)N2C1=O (some centres not stated) | > 100 µM | > 100 µM | > 100 µM | > 100 µM | > 100 µM | > 100 µM | > 100 µM | > 100 µM | – | – | – | – | – | – | – | – | – | – | – | –
COc1cc2c3c(n(CCCN=[N+]=[N-])c(=O)c2cc1OC)-c1ccc([N+](=O)[O-])cc1C3=O | > 100 µM | > 100 µM | > 100 µM | > 100 µM | > 100 µM | 66.9 µM | > 100 µM | > 100 µM | > 100000 nM | 61000 nM | 91100 nM | > 100000 nM | > 100000 nM | 20.9 µM | 50100 nM | > 100 µM | > 100000 nM | > 100000 nM | – | –
CCCCCCCCCCCCCCCCn1cc[n+](C)c1 | 1.13 µM | 1.64 µM | 1.87 µM | 1.02 µM | 17.8 µM | – | 0.929 µM | 1.53 µM | 131 nM | 412 nM | 287 nM | 286 nM | 372 nM | – | 398 nM | – | 254 nM | 356 nM | 277 nM | 1.13 µM
C=CC12CCCCC1CC(C(=O)OC)=C(O)C2 (configuration not stated) | > 100 µM | > 100 µM | > 100 µM | > 100 µM | > 100 µM | > 100 µM | > 100 µM | > 100 µM | – | – | – | – | – | – | – | – | – | – | – | > 100 µM
CCCCCCOC(=O)CC1=C(C)/C(=C/c2[nH]c(-c3ccc[nH]3)cc2OC)N=C1C | – | 0.0565 µM | 1.75 µM | 1.15 µM | 1.71 µM | 0.3 µM | 1.38 µM | 1.13 µM | – | 21.8 nM | 101 nM | 168 nM | 78.5 nM | 0.0372 µM | 36.7 nM | 0.545 µM | 108 nM | 67.5 nM | – | –
NC1=NN(c2ccccc2)C(=O)C1C(=O)C(=O)Nc1ccccc1 (configuration not stated) | > 100 µM | > 100 µM | > 100 µM | > 100 µM | > 100 µM | – | > 100 µM | > 100 µM | – | – | – | – | – | – | – | – | – | – | – | > 100 µM
Cn1cnc([N+](=O)[O-])c1S(=O)(=O)Oc1ccc(Cl)cc1 | 10.2 µM | 3.57 µM | 25.6 µM | 3.42 µM | – | 29.7 µM | > 100 µM | 55.8 µM | 2990 nM | 1730 nM | 8880 nM | 1860 nM | – | 14.1 µM | 2210 nM | 6.3 µM | 27800 nM | 16600 nM | 15900 nM | 30.2 µM
COc1ccc2cc3c4cc(OC)c(OC)cc4ccn3c2c1 | > 100 µM | > 100 µM | > 100 µM | – | > 100 µM | – | > 100 µM | > 100 µM | – | – | – | – | – | – | – | – | – | – | – | > 100 µM
CCCCCCCCCCCCCCCCc1c(C(=O)OC)nc(NC#N)[nH]c1=O | > 25 µM | > 25 µM | > 25 µM | > 25 µM | > 25 µM | > 25 µM | > 25 µM | > 25 µM | – | – | – | – | – | – | – | – | – | – | – | > 25 µM
C=C(C)CC(C(=O)O)c1ccc(C)cc1 (configuration not stated) | > 100 µM | > 100 µM | > 100 µM | > 100 µM | > 100 µM | > 100 µM | > 100 µM | > 100 µM | – | – | – | – | – | – | – | – | – | – | – | –
c1cc[c]([Ge]([O]c2cccc3cccnc23)([c]2ccccc2)[c]2ccccc2)cc1 | – | 13.2 µM | 8.16 µM | 6.82 µM | 13.1 µM | 13.1 µM | 20.3 µM | 13.4 µM | – | 3920 nM | 2960 nM | 2550 nM | 3110 nM | 3.5 µM | – | – | 7360 nM | 3830 nM | 2540 nM | 6.16 µM
C=CCCn1nc(-c2ccccc2)oc1=O | > 100 µM | > 100 µM | > 100 µM | > 100 µM | > 100 µM | > 100 µM | > 100 µM | > 100 µM | – | – | – | – | – | – | – | – | – | – | – | > 100 µM
COc1ccc(O)c(/C=N\Nc2ccccc2)c1 | > 100 µM | 13 µM | 67.7 µM | – | > 100 µM | > 100 µM | – | > 100 µM | – | – | – | – | – | – | – | > 100 µM | – | – | – | 5.33 µM
O=C1CCCc2ccc([N+](=O)[O-])c(O)c21 | > 100 µM | > 100 µM | > 100 µM | > 100 µM | > 100 µM | > 100 µM | > 100 µM | > 100 µM | – | – | – | – | – | – | – | – | – | – | – | > 100 µM
O=CN/C=C/c1ccccc1 | > 31.6 µM | > 100 µM | > 100 µM | > 100 µM | > 100 µM | > 100 µM | > 100 µM | > 100 µM | – | – | – | – | – | – | – | – | – | – | – | > 100 µM
CN(C)CC1(C)CC/C(=C\c2ccc(Cl)cc2)C1=O (configuration not stated) | > 100 µM | 82.1 µM | > 100 µM | > 100 µM | > 100 µM | > 100 µM | > 100 µM | > 100 µM | – | – | – | – | – | – | – | – | – | – | – | > 100 µM
CC(=O)N1c2ccccc2N(C(C)=O)C1c1ccc(C2N(C(C)=O)c3ccccc3N2C(C)=O)[nH]1 | > 100 µM | > 100 µM | > 100 µM | > 100 µM | > 100 µM | > 100 µM | > 100 µM | > 100 µM | – | – | – | – | – | – | – | – | – | – | – | > 100 µM
C[C@]12Cc3conc3C(O)=C1CC[C@@H]1C2CC[C@@]2(C)C1CC[C@@H]2O (some centres not stated) | > 100 µM | 24.9 µM | 64.3 µM | 52.5 µM | > 100 µM | 31.1 µM | > 100 µM | 64.4 µM | – | – | – | – | – | – | – | – | – | – | – | –
Nc1nc(-c2cccnc2)cc(-c2cc(-c3cccnc3)nc(N)n2)n1 | > 100 µM | > 100 µM | > 100 µM | > 100 µM | > 100 µM | – | > 100 µM | > 100 µM | – | – | – | – | – | – | – | > 100 µM | – | – | – | > 100 µM
COc1cccc2c1C(=O)c1c(O)c3c(c(O)c1C2=O)C[C@](O)(C(=O)CO)C[C@H]3O[C@@H]1C[C@@H](NC(=O)CCCN(C)C2(c3ccc(F)cc3)CC3CCC2C3)[C@H](O)[C@@H](C)O1 (some centres not stated) | 2.58 µM | 1.45 µM | 1.71 µM | 1.71 µM | 1.61 µM | 9.89 µM | 1.64 µM | 1.52 µM | 1020 nM | 734 nM | 829 nM | 852 nM | 844 nM | 1.09 µM | – | – | 780 nM | 793 nM | 826 nM | 1.55 µM
